target: AOC3 (Homo sapiens (Human), UniProt Q16853); experiment: MAO-Glo AOC3 assay (recombinant CHO cells overexpressing AOC3); assay type: biochemical; conditions: Table 1, read-out: AOC3 IC50
From the text: The MAO-Glo™ Assay (commercial available from PROMEGA, # V1402) provides a sensitive method for the measurement of monoamine oxidase (MAO) activity (Valley, M. P. et al., 2006, Anal. Biochem. 359: 238-246) from a variety of tissues, biofluids or recombinant expressed or purified enzymes. As substrate a derivate of the beetle luciferin ((4S)-4,5-dihydro-2-(6-hydroxybenzothiazolyl)-4-thiazole-carboxylic acid) is used, which is oxidized at a primary amine moiety. After a spontaneous elimination and a catalyzed esterase reaction, the turnover of the luciferine by the luciferase is recorded as a signal of AOC3 activity.
An aliquot of 3 μL of the compound dilution is added to a 384 well plate (Optiplate, PS, flat bottom, white, PERKIN ELMER, #6007290) with a final DMSO concentration of 6.6%. Recombinant CHO cells, overexpressing the human (1500 cells/well), mouse (1000 cells/well) or rat (500 cells/well) AOC3 enzyme are diluted in reaction buffer and added in a volume of 15 μL to the wells. After incubation for 20 minutes at 37° C., 2 μL of MAO substrate (dissolved in DMSO at 16 mM, adjusted to assay concentration in reaction buffer to a final assay concentration of 20 μM) is added and further incubated for 60 minutes at 37° C. The turnover of the substrate is determined by the addition of 20 μL of the detection-mix which was generated by the addition of reconstitution buffer with esterase (PROMEGA, # V1402) to the luciferine detection reagent (PROMEGA, # V1402). After an incubation period of 20 minutes, the luminescent signal is measured with Envision 2104 Multilabel Reader (PERKIN ELMER).
In the following table the activity expressed as IC50 (nM) of compounds according to the invention is presented wherein the IC50 values are determined in the MAO-Glo™ AOC3 assay as described hereinbefore. The term “Example” refers to the example numbers according to the following experimental section.

Sequence of AOC3 (Q16853 whole entry): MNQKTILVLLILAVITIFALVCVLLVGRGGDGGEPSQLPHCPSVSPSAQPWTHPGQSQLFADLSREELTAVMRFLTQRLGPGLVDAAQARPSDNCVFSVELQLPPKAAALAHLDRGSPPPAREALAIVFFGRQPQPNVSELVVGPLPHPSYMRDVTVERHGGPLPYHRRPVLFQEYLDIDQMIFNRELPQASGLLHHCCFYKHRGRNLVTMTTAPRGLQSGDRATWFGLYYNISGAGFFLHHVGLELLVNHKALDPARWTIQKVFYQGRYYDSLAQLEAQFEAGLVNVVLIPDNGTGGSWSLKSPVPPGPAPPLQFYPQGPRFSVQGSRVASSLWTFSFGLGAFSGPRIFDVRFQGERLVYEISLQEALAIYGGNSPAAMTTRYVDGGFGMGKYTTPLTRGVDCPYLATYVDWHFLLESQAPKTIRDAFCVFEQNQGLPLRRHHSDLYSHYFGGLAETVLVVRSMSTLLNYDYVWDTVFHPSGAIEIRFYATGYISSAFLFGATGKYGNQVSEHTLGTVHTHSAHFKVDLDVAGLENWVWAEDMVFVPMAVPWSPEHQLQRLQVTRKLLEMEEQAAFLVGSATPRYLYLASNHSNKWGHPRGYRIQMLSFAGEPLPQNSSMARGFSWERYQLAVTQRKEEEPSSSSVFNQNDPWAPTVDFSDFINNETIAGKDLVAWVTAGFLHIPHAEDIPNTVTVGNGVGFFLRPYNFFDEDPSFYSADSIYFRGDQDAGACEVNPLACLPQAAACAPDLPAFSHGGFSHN

Compound | IC50 [nM]
N=C(N)NC(=O)OCc1ccnc(N2CC(c3ccccc3)C2)c1F [Example 1.001] | 98
N=C(N)NC(=O)OCc1ccnc(N2CC(c3ccccn3)C2)c1F [Example 1.002] | 172
N=C(N)NC(=O)OCc1ccnc(N2CC=C(c3ncco3)CC2)c1F [Example 1.004] | 38
N=C(N)NC(=O)OCc1ccnc(N2CC=C(c3ccccn3)CC2)c1F [Example 1.006] | 18
N=C(N)NC(=O)OCc1ccnc(N2CC=C(c3ncccn3)CC2)c1F [Example 1.007] | 96
N=C(N)NC(=O)OCc1ccnc(N2CCN(c3ccccc3)CC2)c1F [Example 1.009] | 41
N=C(N)NC(=O)OCc1ccnc(N2CCN(c3ccccn3)CC2)c1F [Example 1.012] | 62
N=C(N)NC(=O)OCc1ccnc(N2CCN(c3cccnn3)CC2)c1F [Example 1.013] | 22
N=C(N)NC(=O)OCc1ccnc(N2CCN(c3ncccn3)CC2)c1F [Example 1.014] | 41
N=C(N)NC(=O)OCc1ccnc(N2CCN(c3ncncn3)CC2)c1F [Example 1.018] | 17
Cc1cnc(C2CCN(c3nccc(COC(=O)NC(=N)N)c3F)CC2)o1 [Example 1.019] | 84
N=C(N)NC(=O)OCc1ccnc(N2CCC(C3CCCCC3)CC2)c1F [Example 1.020] | 35
N=C(N)NC(=O)OCc1ccnc(N2CCN(C3CCCC3)C(=O)C2)c1F [Example 1.021] | 26
N=C(N)NC(=O)OCc1ccnc(N2CCC(c3nccs3)CC2)c1F [Example 1.022] | 49
N=C(N)NC(=O)OCc1ccnc(N2CCN(c3nccs3)CC2)c1F [Example 1.024] | 18
N=C(N)NC(=O)OCc1ccnc(N2CCC(N3CCOCC3)CC2)c1F [Example 1.025] | 92
N=C(N)NC(=O)OCc1ccnc(N2CCC(N3CCOC3=O)CC2)c1F [Example 1.026] | 111
Cc1cnc(C2=CCN(c3nccc(COC(=O)NC(=N)N)c3F)CC2)nc1 [Example 1.030] | 23

Compound | IC50 [nM]
Cc1ccccc1N1CCN(c2nccc(COC(=O)NC(=N)N)c2F)CC1 [Example 1.034] | 58
N=C(N)NC(=O)OCc1ccnc(N2CC=C(c3ncc(F)cn3)CC2)c1F [Example 1.042] | 28
N=C(N)NC(=O)OCc1ccnc(N2CCN(c3ncc(F)cn3)CC2)c1F [Example 1.045] | 24
N=C(N)NC(=O)OCc1ccnc(N2CCC(N3CCCCC3=O)CC2)c1F [Example 1.046] | 128
N=C(N)NC(=O)OCc1ccnc(N2CCC3(C=Cc4ccccc43)CC2)c1F [Example 1.049] | 22
N=C(N)NC(=O)OCc1ccnc(N2C3CCC2CC(c2ccccc2)C3)c1F (stereo not shown) [Example 1.052] | 84
N=C(N)NC(=O)OCc1ccnc(N2CCC3(CCc4ccccc43)CC2)c1F [Example 1.053] | 83
Cc1cccc(C)c1N1CCN(c2nccc(COC(=O)NC(=N)N)c2F)CC1 [Example 1.060] | 217
N=C(N)NC(=O)OCc1ccnc(N2CC3CC2CN3c2cccc(F)c2)c1F (stereo not shown) [Example 1.066] | 278
N#CC1CCN(C2CCN(c3nccc(COC(=O)NC(=N)N)c3F)CC2)CC1 [Example 1.070] | 77
N=C(N)NC(=O)OCc1ccnc(N2CCN(c3ccccc3Cl)CC2)c1F [Example 1.076] | 39
N=C(N)NC(=O)OCc1ccnc(N2CCC(N3CC[S+]([O-])CC3)CC2)c1F [Example 1.080] | 86
N=C(N)NC(=O)OCc1ccnc(N2CC(c3ccc(OCC4CC4)cc3)C2)c1F [Example 1.081] | 22
N=C(N)NC(=O)OCc1ccnc(N2CCC(N3CCC(C(N)=O)CC3)CC2)c1F [Example 1.088] | 48
COC(=O)c1cnc(N2CCN(c3nccc(COC(=O)NC(=N)N)c3F)CC2)nc1 [Example 1.093] | 17
CC(C)(C)OC(=O)N1CC(C2CCN(c3nccc(COC(=O)NC(=N)N)c3F)CC2)C1 [Example 1.102] | 65
N#Cc1ccc(N2CCN(c3nccc(COC(=O)NC(=N)N)c3F)CC2)c(C(F)(F)F)c1 [Example 1.105] | 31

The remaining compounds from weak to strong by IC50, led by results:

IC50 [nM] | Compound
17 | N=C(N)NC(=O)OCc1ccnc(N2CC=C(c3ccccc3)CC2)c1F [Example 1.005]
17 | Cc1cnc(C2=CCN(c3nccc(COC(=O)NC(=N)N)c3F)CC2)o1 [Example 1.015]
16 | N#Cc1ccc(C2CN(c3cccc(COC(=O)NC(=N)N)n3)C2)cc1 [Example 1.003]
16 | N#Cc1cnc(N2CCN(c3nccc(COC(=O)NC(=N)N)c3F)CC2)nc1 [Example 1.059]
15 | N=C(N)NC(=O)OCc1ccnc(N2CCC(c3ccccc3)CC2)c1F [Example 1.008]
15 | N=C(N)NC(=O)OCc1ccnc(N2CC=C(c3ccc(Cl)cc3)CC2)c1F [Example 1.069]
15 | N=C(N)NC(=O)OCc1ccnc(N2CCN(c3ncc(C(F)(F)F)cn3)CC2)c1F [Example 1.098]
14 | CC1CN(c2nccc(COC(=O)NC(=N)N)c2F)CCN1c1ccccc1 (stereo not shown) [Example 1.035]
14 | Cc1ccc(N2CCN(c3nccc(COC(=O)NC(=N)N)c3F)CC2)nc1 [Example 1.038]
14 | N=C(N)NC(=O)OCc1ccnc(N2CCC(c3cccc(Cl)c3)CC2)c1F [Example 1.075]
14 | COC(=O)c1ccc(N2CCN(c3nccc(COC(=O)NC(=N)N)c3F)CC2)nn1 [Example 1.094]
13 | N=C(N)NC(=O)OCc1ccnc(N2CCN(c3ccccc3F)CC2)c1F [Example 1.043]
13 | Cc1ccc(N2CCN(c3nccc(COC(=O)NC(=N)N)c3F)CC2)cc1C [Example 1.063]
12 | CCOc1ccc(C2CCN(c3nccc(COC(=O)NC(=N)N)c3F)CC2)cn1 [Example 1.087]
12 | N=C(N)NC(=O)OCc1ccnc(N2CCC(c3ccc(C(F)(F)F)cc3)CC2)c1F [Example 1.096]
11 | Cc1ccc(N2CCN(c3nccc(COC(=O)NC(=N)N)c3F)CC2)cc1 [Example 1.032]
11 | CCc1ccc(N2CCN(c3nccc(COC(=O)NC(=N)N)c3F)CC2)cc1 [Example 1.062]
11 | N=C(N)NC(=O)OCc1ccnc(N2CCC(c3ncc(Cl)cn3)CC2)c1F [Example 1.079]
11 | N=C(N)NC(=O)OCc1ccnc(N2CCN(c3ccc(C(F)(F)F)cc3)CC2)c1F [Example 1.097]
10 | Cc1cccc(C2CCN(c3nccc(COC(=O)NC(=N)N)c3F)CC2)c1 [Example 1.028]
10 | COc1cnc(N2CCN(c3nccc(COC(=O)NC(=N)N)c3F)CC2)nc1 [Example 1.073]
10 | CN(C)Cc1ccc(C2CCN(c3nccc(COC(=O)NC(=N)N)c3F)CC2)cc1 [Example 1.090]
9 | Cc1ccc(C2CCN(c3nccc(COC(=O)NC(=N)N)c3F)CC2)cc1 [Example 1.029]
8 | COc1cnc(C2CCN(c3nccc(COC(=O)NC(=N)N)c3F)CC2)nc1 [Example 1.071]
3 | N#Cc1ccc(N2CCN(c3nccc(COC(=O)NC(=N)N)c3F)CC2)cn1 [Example 1.057]
2 | N=C(N)NC(=O)OCc1ccnc(N2CCC(c3ccc(C(=O)O)cc3)CC2)c1F [Example 1.082]
